Laboratory results: ChEMBL document CHEMBL3991601, “The target landscape of clinical kinase drugs” (Science, 2017)
pKd: −log10 of the molar value. Where a name gives a salt, the structure may show the parent alone. Calls of active or inactive are those of the source. For most assays here, no stated cut-off is given here; in the data, actives have a measured Kd and inactives only a lower limit.

How the values were obtained:
[1] = target: Adenosine kinase (Homo sapiens, UniProt P55263)
[2] = target: Calcium/calmodulin-dependent protein kinase type II subunit delta (Homo sapiens, UniProt Q13557)
[3] = target: Calcium/calmodulin-dependent protein kinase type II subunit gamma (Homo sapiens, UniProt Q13555)
[4] = target: Cyclin-dependent kinase 17 (Homo sapiens, UniProt Q00537)
[5] = target: T1, Serine/threonine-protein kinase Chk1 (Homo sapiens, UniProt O14757)
T1 sequence (O14757 whole entry): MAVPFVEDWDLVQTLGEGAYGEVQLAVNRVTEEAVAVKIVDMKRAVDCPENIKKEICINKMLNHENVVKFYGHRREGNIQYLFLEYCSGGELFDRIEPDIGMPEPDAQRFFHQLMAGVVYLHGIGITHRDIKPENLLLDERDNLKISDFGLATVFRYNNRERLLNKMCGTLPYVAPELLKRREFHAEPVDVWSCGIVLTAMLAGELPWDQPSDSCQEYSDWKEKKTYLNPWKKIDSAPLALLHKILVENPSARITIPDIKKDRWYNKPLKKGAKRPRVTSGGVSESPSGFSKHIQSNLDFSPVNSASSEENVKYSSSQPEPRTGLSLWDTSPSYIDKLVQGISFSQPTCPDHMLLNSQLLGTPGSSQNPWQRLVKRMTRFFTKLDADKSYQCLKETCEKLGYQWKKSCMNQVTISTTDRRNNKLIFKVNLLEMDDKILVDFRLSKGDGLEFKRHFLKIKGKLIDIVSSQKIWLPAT

[6] = target: T2, Delta(24)-sterol reductase (Homo sapiens, UniProt Q15392)
T2 sequence (Q15392 whole entry): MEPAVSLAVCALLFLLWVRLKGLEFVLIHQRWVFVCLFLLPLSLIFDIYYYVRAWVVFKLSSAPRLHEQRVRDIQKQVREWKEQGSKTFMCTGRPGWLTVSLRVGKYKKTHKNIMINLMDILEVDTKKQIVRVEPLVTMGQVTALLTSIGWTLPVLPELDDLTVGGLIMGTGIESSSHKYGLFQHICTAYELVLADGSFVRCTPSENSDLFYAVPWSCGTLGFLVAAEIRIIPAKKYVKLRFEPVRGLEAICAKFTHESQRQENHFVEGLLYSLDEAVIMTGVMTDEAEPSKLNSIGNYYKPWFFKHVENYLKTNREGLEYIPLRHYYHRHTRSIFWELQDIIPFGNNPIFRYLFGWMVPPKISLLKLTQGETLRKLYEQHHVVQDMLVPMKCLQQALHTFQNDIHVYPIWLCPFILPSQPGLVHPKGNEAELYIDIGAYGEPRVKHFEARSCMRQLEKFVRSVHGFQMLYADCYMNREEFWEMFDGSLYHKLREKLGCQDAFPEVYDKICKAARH

[7] = target: Tyrosine-protein kinase Fer (Homo sapiens, UniProt P16591)
[8] = target: Inosine-5'-monophosphate dehydrogenase 2 (Homo sapiens, UniProt P12268)
[9] = target: T3, MAP kinase-activated protein kinase 5 (Homo sapiens, UniProt Q8IW41)
T3 sequence (Q8IW41 whole entry): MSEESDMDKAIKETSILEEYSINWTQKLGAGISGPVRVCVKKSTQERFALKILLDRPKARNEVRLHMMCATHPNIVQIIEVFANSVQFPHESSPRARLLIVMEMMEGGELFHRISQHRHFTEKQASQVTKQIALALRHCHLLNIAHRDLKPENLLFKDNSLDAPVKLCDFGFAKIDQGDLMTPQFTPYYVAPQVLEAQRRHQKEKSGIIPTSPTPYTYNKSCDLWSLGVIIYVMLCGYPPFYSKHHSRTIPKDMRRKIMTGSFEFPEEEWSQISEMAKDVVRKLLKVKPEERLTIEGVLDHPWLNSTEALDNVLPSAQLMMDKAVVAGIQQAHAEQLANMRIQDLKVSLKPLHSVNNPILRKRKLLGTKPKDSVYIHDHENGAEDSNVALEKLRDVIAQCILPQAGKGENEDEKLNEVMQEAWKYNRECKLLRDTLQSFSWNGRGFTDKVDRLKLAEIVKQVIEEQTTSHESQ

[10] = target: T4, Serine/threonine-protein kinase D3 (Homo sapiens, UniProt O94806)
T4 sequence (O94806 whole entry): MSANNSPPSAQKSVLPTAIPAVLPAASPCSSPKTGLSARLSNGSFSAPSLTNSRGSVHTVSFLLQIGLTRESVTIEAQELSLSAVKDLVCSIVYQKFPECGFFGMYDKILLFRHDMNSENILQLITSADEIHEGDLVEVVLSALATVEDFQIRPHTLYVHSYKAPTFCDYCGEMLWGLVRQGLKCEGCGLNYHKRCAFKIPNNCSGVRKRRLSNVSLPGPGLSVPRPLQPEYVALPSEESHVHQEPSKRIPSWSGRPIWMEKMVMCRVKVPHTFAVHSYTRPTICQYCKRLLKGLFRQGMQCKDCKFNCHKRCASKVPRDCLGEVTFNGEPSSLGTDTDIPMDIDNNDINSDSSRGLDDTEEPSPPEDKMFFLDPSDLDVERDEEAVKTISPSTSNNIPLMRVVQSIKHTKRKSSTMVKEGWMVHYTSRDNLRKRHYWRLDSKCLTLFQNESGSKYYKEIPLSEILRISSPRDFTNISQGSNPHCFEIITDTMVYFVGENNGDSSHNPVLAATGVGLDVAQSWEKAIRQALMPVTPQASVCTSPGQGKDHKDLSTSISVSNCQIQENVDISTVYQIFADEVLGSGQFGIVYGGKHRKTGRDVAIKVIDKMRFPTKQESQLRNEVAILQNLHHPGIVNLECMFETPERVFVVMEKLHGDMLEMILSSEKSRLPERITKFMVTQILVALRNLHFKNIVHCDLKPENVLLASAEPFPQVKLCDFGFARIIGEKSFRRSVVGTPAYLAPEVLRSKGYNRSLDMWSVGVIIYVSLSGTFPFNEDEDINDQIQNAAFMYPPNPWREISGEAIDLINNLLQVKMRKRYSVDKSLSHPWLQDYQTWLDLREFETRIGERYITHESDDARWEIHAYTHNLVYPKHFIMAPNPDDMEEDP

Chain of Calcium/calmodulin-dependent protein kinase type II subunit delta (Q13557 whole entry): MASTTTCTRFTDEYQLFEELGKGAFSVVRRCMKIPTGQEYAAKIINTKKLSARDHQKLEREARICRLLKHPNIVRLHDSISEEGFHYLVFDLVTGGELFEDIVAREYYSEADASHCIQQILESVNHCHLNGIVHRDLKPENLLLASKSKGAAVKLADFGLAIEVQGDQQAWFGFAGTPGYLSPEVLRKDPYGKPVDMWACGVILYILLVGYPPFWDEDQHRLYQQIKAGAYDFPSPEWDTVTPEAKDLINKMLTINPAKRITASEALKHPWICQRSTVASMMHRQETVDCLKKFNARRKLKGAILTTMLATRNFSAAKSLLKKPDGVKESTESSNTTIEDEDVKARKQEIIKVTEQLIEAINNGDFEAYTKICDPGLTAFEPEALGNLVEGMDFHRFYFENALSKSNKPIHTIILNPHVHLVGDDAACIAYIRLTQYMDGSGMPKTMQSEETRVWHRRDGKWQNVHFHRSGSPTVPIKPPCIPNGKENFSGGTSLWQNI
Chain of Calcium/calmodulin-dependent protein kinase type II subunit gamma (Q13555 whole entry): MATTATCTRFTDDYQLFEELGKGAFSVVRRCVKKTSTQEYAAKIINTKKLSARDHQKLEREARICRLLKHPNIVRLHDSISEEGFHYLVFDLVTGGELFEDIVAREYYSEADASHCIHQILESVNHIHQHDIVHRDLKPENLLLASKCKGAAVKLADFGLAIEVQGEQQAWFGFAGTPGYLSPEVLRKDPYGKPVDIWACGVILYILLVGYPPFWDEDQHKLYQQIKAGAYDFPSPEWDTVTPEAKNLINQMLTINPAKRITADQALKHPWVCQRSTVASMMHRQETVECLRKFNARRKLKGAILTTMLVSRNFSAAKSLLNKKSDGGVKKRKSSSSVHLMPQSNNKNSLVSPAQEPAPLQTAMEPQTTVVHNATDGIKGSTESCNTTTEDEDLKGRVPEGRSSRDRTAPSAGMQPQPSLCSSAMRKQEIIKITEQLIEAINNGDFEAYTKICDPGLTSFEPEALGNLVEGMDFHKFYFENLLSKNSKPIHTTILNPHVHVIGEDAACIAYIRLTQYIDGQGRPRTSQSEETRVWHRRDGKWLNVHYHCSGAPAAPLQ
Chain of Adenosine kinase (P55263 whole entry): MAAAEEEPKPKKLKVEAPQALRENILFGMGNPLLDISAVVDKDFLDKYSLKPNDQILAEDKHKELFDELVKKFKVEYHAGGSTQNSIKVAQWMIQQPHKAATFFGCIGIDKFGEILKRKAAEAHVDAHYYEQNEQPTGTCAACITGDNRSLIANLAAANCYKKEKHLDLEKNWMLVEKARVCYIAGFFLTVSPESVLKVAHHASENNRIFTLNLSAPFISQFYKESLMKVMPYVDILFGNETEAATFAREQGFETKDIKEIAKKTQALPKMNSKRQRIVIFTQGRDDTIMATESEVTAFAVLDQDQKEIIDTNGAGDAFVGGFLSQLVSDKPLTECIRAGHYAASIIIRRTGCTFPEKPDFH
Chain of Tyrosine-protein kinase Fer (P16591 whole entry): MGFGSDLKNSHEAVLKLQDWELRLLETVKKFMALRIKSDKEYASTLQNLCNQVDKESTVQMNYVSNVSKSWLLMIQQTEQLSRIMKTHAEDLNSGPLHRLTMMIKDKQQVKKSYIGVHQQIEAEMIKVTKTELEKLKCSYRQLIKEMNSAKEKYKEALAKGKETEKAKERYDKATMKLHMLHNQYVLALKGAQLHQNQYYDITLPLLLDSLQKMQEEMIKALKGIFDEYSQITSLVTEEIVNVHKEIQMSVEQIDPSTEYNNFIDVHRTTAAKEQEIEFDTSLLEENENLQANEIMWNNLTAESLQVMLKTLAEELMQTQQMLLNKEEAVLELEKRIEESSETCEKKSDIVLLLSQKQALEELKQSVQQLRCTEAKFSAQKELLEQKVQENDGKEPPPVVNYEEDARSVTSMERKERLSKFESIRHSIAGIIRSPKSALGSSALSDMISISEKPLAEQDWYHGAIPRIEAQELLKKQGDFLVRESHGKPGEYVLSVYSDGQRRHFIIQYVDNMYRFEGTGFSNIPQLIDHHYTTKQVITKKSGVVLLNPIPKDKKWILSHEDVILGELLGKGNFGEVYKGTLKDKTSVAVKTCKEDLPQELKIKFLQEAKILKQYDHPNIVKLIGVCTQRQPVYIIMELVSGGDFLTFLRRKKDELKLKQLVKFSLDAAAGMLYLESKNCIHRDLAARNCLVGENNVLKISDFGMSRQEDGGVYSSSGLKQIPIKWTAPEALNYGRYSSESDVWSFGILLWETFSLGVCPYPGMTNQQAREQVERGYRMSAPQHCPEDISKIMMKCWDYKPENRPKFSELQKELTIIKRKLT
Chain of Cyclin-dependent kinase 17 (Q00537 whole entry): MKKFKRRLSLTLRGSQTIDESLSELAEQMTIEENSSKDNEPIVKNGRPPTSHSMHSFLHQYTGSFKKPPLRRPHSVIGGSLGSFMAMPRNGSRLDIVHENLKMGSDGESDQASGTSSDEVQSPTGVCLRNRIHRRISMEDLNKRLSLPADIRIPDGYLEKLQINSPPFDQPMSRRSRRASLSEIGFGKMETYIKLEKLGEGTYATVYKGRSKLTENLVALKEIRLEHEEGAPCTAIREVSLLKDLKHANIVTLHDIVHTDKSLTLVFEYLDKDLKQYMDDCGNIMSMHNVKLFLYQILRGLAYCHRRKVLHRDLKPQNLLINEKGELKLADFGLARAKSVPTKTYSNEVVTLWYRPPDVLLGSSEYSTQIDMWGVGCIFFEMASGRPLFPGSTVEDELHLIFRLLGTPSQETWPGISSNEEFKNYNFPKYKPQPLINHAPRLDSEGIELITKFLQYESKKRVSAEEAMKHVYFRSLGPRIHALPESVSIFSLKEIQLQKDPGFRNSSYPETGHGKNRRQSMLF

Kd [1] | Kd [2] | Kd [3] | Kd [4] | Kd [5] | Kd [6] | Kd [7] | Kd [8] | Kd [9] | Kd [10] | pKd [4] | Structure (SMILES)
> 30 µM (inactive) | > 30 µM (inactive) | > 30 µM (inactive) | > 30 µM (inactive) | > 30 µM (inactive) | > 30 µM (inactive) | > 30 µM (inactive) | > 30 µM (inactive) | > 30 µM (inactive) | > 30 µM (inactive) |  | COc1c(OCCCN2CCOCC2)ccc2c1N=C(NC(=O)c1cnc(N)nc1)N1CCN=C21 [COPANLISIB]
> 30 µM (inactive) | > 30 µM (inactive) | > 30 µM (inactive) | > 30 µM (inactive) | > 30 µM (inactive) | > 30 µM (inactive) | > 30 µM (inactive) | > 30 µM (inactive) | > 30 µM (inactive) | > 30 µM (inactive) |  | COCC(=O)NC/C=C/c1ccc2ncnc(Nc3ccc(Oc4ccc(C)nc4)c(C)c3)c2c1 [CP-724714]
> 30 µM (inactive) | > 30 µM (inactive) | > 30 µM (inactive) | > 30 µM (inactive) | > 30 µM (inactive) | > 30 µM (inactive) | > 30 µM (inactive) | > 30 µM (inactive) | > 30 µM (inactive) | > 30 µM (inactive) |  | C#Cc1cccc(Nc2ncnc3cc(OC)c(OCCCCCCC(=O)NO)cc23)c1 [CUDC-101]
 | > 30 µM (inactive) | > 30 µM (inactive) | > 30 µM (inactive) | 0.701 µM (active) | > 30 µM (inactive) | > 30 µM (inactive) | > 30 µM (inactive) | > 30 µM (inactive) | 1.06 µM (active) |  | CCS(=O)(=O)N1CCN(c2ccc(Nc3ncc(C(N)=O)c(NC4CC4)n3)cc2)CC1 [Cerdulatinib Hydrochloride]
 | > 30 µM (inactive) | > 30 µM (inactive) | > 30 µM (inactive) | > 30 µM (inactive) | > 30 µM (inactive) | > 30 µM (inactive) | > 30 µM (inactive) | > 30 µM (inactive) | > 30 µM (inactive) |  | Cc1nc2cc(-n3ncc(C(=O)c4cc5ccccc5[nH]4)c3N)ccc2[nH]1 [FGFR INHIBITOR DEBIO 1347]
> 30 µM (inactive) | > 30 µM (inactive) | > 30 µM (inactive) | > 30 µM (inactive) | 1.75 µM (active) | > 30 µM (inactive) | 0.574 µM (active) |  | > 30 µM (inactive) | > 30 µM (inactive) |  | CCS(=O)(=O)c1cccc(-c2cc(C(=O)NC3CCN(C)CC3)c(C)c3[nH]c4ncc(C)cc4c23)c1 [TAK-901]
 | > 30 µM (inactive) | > 30 µM (inactive) |  | > 30 µM (inactive) | > 30 µM (inactive) | 0.105 µM (active) | > 30 µM (inactive) | > 30 µM (inactive) | 1.86 µM (active) | 8.30 | CC(C)c1cc(CNc2nc(Nc3cc(C4CC4)[nH]n3)cc(N3CCN(C)CC3)n2)on1 [XL-228]

Continued, molecule first:

Structure (SMILES) | Kd [1] | Kd [2] | Kd [3] | Kd [4] | Kd [5] | Kd [6] | Kd [7] | Kd [8] | Kd [9] | Kd [10] | pKd [4]
C=CC(=O)N1CCC[C@H](n2c(=O)n(-c3ccc(Oc4ccccc4)cc3)c3c(N)ncnc32)C1 | > 30 µM (inactive) | > 30 µM (inactive) | > 30 µM (inactive) | > 30 µM (inactive) | > 30 µM (inactive) | > 30 µM (inactive) | > 30 µM (inactive) | > 30 µM (inactive) | > 30 µM (inactive) | > 30 µM (inactive) | 
Cc1nc2cc(-c3nn(C(C)C)c4ncnc(N)c34)ccc2o1 | > 30 µM (inactive) | > 30 µM (inactive) | > 30 µM (inactive) | > 30 µM (inactive) | > 30 µM (inactive) | > 30 µM (inactive) | > 30 µM (inactive) | > 30 µM (inactive) | > 30 µM (inactive) | > 30 µM (inactive) | 
COCc1c(-c2ccc(NC(=O)Nc3cc(C(F)(F)F)ccc3F)c(F)c2)c2c(N)ncnn2c1CN1CCOCC1 | > 30 µM (inactive) | > 30 µM (inactive) | > 30 µM (inactive) | > 30 µM (inactive) | > 30 µM (inactive) | > 30 µM (inactive) | > 30 µM (inactive) | > 30 µM (inactive) | > 30 µM (inactive) | > 30 µM (inactive) | 
Cc1csc(-c2nnc(Nc3ccc(Oc4ncccc4-c4ccnc(N)n4)cc3)c3ccccc23)c1 [AMG-900] | > 30 µM (inactive) | > 30 µM (inactive) | > 30 µM (inactive) | > 30 µM (inactive) | > 30 µM (inactive) | > 30 µM (inactive) | > 30 µM (inactive) | > 30 µM (inactive) | > 30 µM (inactive) | 1.91 µM (active) | 
COc1cc([C@@H]2c3cc4c(cc3[C@H](O)[C@H]3COC(=O)[C@@H]23)OCO4)cc(OC)c1OC [AXL-1717] | > 30 µM (inactive) | > 30 µM (inactive) | > 30 µM (inactive) | > 30 µM (inactive) | > 30 µM (inactive) | > 30 µM (inactive) | > 30 µM (inactive) | > 30 µM (inactive) | > 30 µM (inactive) | > 30 µM (inactive) | 
Cc1cc(C(=O)NOCCO)c(Nc2ccc(I)cc2F)n(C)c1=O [AZD-8330] | > 30 µM (inactive) | > 30 µM (inactive) | > 30 µM (inactive) | > 30 µM (inactive) | > 30 µM (inactive) | > 30 µM (inactive) | > 30 µM (inactive) | > 30 µM (inactive) | > 30 µM (inactive) | > 30 µM (inactive) | 
Cn1cnc2c(F)c(Nc3ccc(Br)cc3F)c(C(=O)NOCCO)cc21 [BINIMETINIB] | > 30 µM (inactive) | > 30 µM (inactive) | > 30 µM (inactive) | > 30 µM (inactive) | > 30 µM (inactive) | > 30 µM (inactive) | > 30 µM (inactive) | > 30 µM (inactive) | > 30 µM (inactive) | > 30 µM (inactive) | 
COc1cc2ncnc(Oc3cccc(NC(=O)Nc4cc(C(C)(C)C(F)(F)F)on4)c3)c2cc1OC [CEP-32496] | > 30 µM (inactive) | > 30 µM (inactive) | > 30 µM (inactive) | > 30 µM (inactive) | > 30 µM (inactive) | > 30 µM (inactive) | 0.98 µM (active) | > 30 µM (inactive) | > 30 µM (inactive) | > 30 µM (inactive) | 
